In paper PMC10051560, “Identification and Functional Characterization of General Odorant Binding Proteins in Orthaga achatina” (Insects, 2023):
Like-named read-outs stand apart in the source and are kept apart here.

Columns and labels:
OachGOBP1 [1] = experiment: Fluorescence competitive binding assay (1-NPN displacement), OachGOBP1; set-up: species or system Orthaga achatina; details: 2 µM protein and 2 µM 1-NPN in 50 mM Tris HCl; for Ki: Ki = [IC50]/(1 + [1-NPN]/K1-NPN), read-out: GOBP1 Ki; for IC50: competitive ligand replacing 50% 1-NPN, read-out: GOBP1 IC50
Method: (§1) A fluorescence competition binding assay was used to test the binding properties of GOBPs to 22 plant volatiles of camphor [22, 23] and 4 sex pheromones of O. achatina. The fluorescence competitive binding assay was conducted on an F-7000 fluorescence spectrophotometer with a 1 cm light path quartz cuvette and 10 nm slits for excitation and emission. The excitation wavelength was 337 nm, and the emission spectrum was recorded between 380 and 460 nm. Firstly, the binding characteristics of 1-NPN to protein were detected. We dissolved 2 µM protein in 50 mM Tris HCl (pH = 7.4), then gradually added 1 mM 1-NPN to make its concentration reach 2, 4, 6, 8, 10, 12, 14, 16 and 20 µM, recorded the fluorescence value, and then calculated the binding constant between 1-NPN and the recombinant protein using the Scatchard equation.
When studying the binding constant between odorant and recombinant protein, 1-NPN was used as a fluorescence reporter. We dissolved 2 µM protein and 2 µM 1-NPN in 50 mM Tris HCl, and then gradually added the ligand. […] In order to determine the binding concentration of protein, the free radical concentration was plotted with the fluorescence intensity of the maximum emission spectrum. It was assumed that the protein activity was 100% and the binding ratio of protein to ligand was 1:1 in the saturated state. The curve was linearized by the Scatchard method. […] The calculation formula was: Ki = [IC50]/(1 + [1-NPN]/K1-NPN), where [1-NPN] is the concentration of unbound 1-NPN and K1-NPN is the dissociation concentration of protein/1-NPN complex.

OachGOBP2 [2] = molecular target: T1, OachGOBP2 (Orthaga achatina, UniProt H6UEU3); experiment: Fluorescence competitive binding assay (1-NPN displacement), OachGOBP2; details: for Ki: Ki = [IC50]/(1 + [1-NPN]/K1-NPN), read-out: GOBP2 Ki; for binding to GOBP2 (in words): fluorescence competitive binding
T1 sequence (H6UEU3 entry or part of it): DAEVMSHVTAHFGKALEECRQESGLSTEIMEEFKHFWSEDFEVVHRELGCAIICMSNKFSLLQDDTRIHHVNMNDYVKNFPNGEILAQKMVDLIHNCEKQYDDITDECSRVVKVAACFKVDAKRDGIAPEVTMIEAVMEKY
Method: as §1
When studying the binding constant between odorant and recombinant protein, 1-NPN was used as a fluorescence reporter. We dissolved 2 µM protein and 2 µM 1-NPN in 50 mM Tris HCl, and then gradually added the ligand. All the ligands were diluted in methanol (AR, content greater than 99.5%). The concentration of pheromone component was 0.5–10 µM and the concentration of plant volatile was 1–32 µM. In order to determine the binding concentration of protein, the free radical concentration was plotted with the fluorescence intensity of the maximum emission spectrum. It was assumed that the protein activity was 100% and the binding ratio of protein to ligand was 1:1 in the saturated state. The curve was linearized by the Scatchard method. Then, the concentration of competitive binding ligand was calculated according to the IC50 value (the concentration when competitive ligand can replace 50% 1-NPN). The calculation formula was: Ki = [IC50]/(1 + [1-NPN]/K1-NPN), where [1-NPN] is the concentration of unbound 1-NPN and K1-NPN is the dissociation concentration of protein/1-NPN complex.

OachGOBP1 [3] = experiment: Binding of fluorescent probe 1-NPN to OachGOBP1 (Scatchard); set-up: species or system Orthaga achatina; details: 2 µM protein in 50 mM Tris HCl pH 7.4, Scatchard; read-out: dissociation constant (K1-NPN) to OachGOBP1
Method: as §1

OachGOBP2 [4] = molecular target: T1, OachGOBP2; experiment: Binding of fluorescent probe 1-NPN to OachGOBP2 (Scatchard); details: 2 µM protein in 50 mM Tris HCl pH 7.4, Scatchard; read-out: dissociation constant (K1-NPN) to OachGOBP2
Method: as §1

[5] = 2 µM protein and 2 µM 1-NPN in 50 mM Tris HCl
[6] = competitive ligand replacing 50% 1-NPN, 2 µM protein and 2 µM 1-NPN in 50 mM Tris HCl, read-out: GOBP2 IC50

| Structure (SMILES) | Ki (OachGOBP1 [1]) [µM] | IC50 (OachGOBP1 [1]) [µM] | Ki (OachGOBP2 [2]; [5]) [µM] | IC50 (OachGOBP2 [2]; [6]) [µM] | Kd (OachGOBP1 [3]) [µM] | Kd (OachGOBP2 [4]) [µM] | binding to GOBP2 (in words) (OachGOBP2 [2]) | IC50 (OachGOBP2 [2]) [µM] | binding capacity class to OachGOBP2 (sex pheromones) (OachGOBP2 [2]; class by Ki, sex pheromones) |
| --- | --- | --- | --- | --- | --- | --- | --- | --- | --- |
| CCCCCCO [1-Hexanol] | > 30 | > 32 | > 30 | > 32 |  |  |  |  |  |
| c1ccc(Nc2cccc3ccccc23)cc1 [1-NPN] |  |  |  |  | 9.95 | 4.91 |  |  |  |
| C=C1C2CCC(C2)C1(C)C (stereo not shown) [Camphene] | > 30 | > 32 | > 30 | > 32 |  |  | did not bind |  |  |
| CC12CCC(CC1=O)C2(C)C (stereo not shown) [Camphor] | > 30 | > 32 | 17.5 | 20.7 |  |  |  |  |  |
| O=C/C=C/c1ccccc1 [Cinnamaldehyde] | > 30 | > 32 |  |  |  |  |  | > 32 |  |
| CCC/C=C/C=O [E2-Hexenal] | > 30 | > 32 | > 30 | > 32 |  |  |  |  |  |
| CC12CCC(CC1)C(C)(C)O2 [Eucalyptol] | > 30 | > 32 | > 30 | > 32 |  |  |  |  |  |
| CC(C)=CCC/C(C)=C/CC/C(C)=C/CO [Farnesol] | 9.49 | 10.9 | 7.33 | 8.68 |  |  |  |  |  |
| CC(C)=CCC/C(C)=C/CO [Geraniol] | > 30 | > 32 |  |  |  |  |  | > 32 |  |
| O=CCCCC=O [Glutaraldehyde] | > 30 | > 32 |  |  |  |  |  | > 32 |  |
| CCCCCCOC(C)=O [Hexyl acetate] | > 30 | > 32 | > 30 | > 32 |  |  |  |  |  |
| C=C(C)[C@H]1CC=C(C)CC1 [Limonene] | > 30 | > 32 | > 30 | > 32 |  |  |  |  |  |
| C=CC(C)(O)CCC=C(C)C (stereo not shown) [Linalool] | > 30 | > 32 |  |  |  |  |  | 13.9 |  |
| C=CC(C)=CCC=C(C)C [Ocimene] | > 30 | > 32 | > 30 | > 32 |  |  |  |  |  |
| CC/C=C\C/C=C\C/C=C\C/C=C\C/C=C\CCCCCCC [Z3, Z6, Z9,Z12,Z15–23: H] | > 30 | > 32 | > 30 | > 32 |  |  |  |  |  |
| CC/C=C\CCO [Z3-Hexen-1-ol] | > 30 | > 32 | 18.2 | 21.4 |  |  |  |  |  |
| CC/C=C\CC=O [Z3-Hexenal] | > 30 | > 32 | > 30 | > 32 |  |  | did not bind |  |  |
| CC/C=C\CCOC(C)=O [Z3-Hexenyl acetate] | > 30 | > 32 | 14.3 | 16.8 |  |  |  |  |  |
| CCCC/C=C\CCCCCCCCCC=O [Z11-16: Ald] | > 30 | > 32 |  | > 32 |  |  |  |  |  |
| CCCC/C=C\CCCCCCCCCCOC(C)=O [Z11-16: OAc] | > 30 | > 32 | 2.84 | 3.3 |  |  |  |  | moderate (2 μM < Ki < 5 μM indicates moderate binding affinity) |
| CCCC/C=C\CCCCCCCCCCO [Z11-16: OH] | 1.57 | 1.79 | 3.3 | 3.86 |  |  |  |  |  |
| C=C/C(C)=C/C/C=C(\C)CCC=C(C)C [α-Farnesene] | > 30 | > 32 | 13.4 | 15.9 |  |  |  |  |  |
| CC(=O)/C=C/C1C(C)=CCCC1(C)C (stereo not drawn) [α-Ionone] | > 30 | > 32 |  |  |  |  |  | > 32 |  |
| CC1=CC[C@H](C(C)C)C=C1 [α-Phellandrene] | > 30 | > 32 |  |  |  |  |  | 10.2 |  |
| C=CC(=C)CC/C=C(\C)CCC=C(C)C [β-Farnesene] | > 30 | > 32 | > 30 | > 32 |  |  |  |  |  |
| CC(=O)/C=C/C1=C(C)CCCC1(C)C [β-Ionone] | > 30 | > 32 |  |  |  |  |  | 17.8 |  |
| C=C1CCC2CC1C2(C)C (stereo not drawn) [β-Pinene] | > 30 | > 32 |  |  |  |  |  | > 32 |  |
